Source: the supplement of paper PMC11208160

assay: recombinant UMI read abundance after kanamycin selection (control-corrected) (log10(CPM+1)); higher = more efficient recombination; extreme values may be limits of the assay; sequences stand for … in AGTGCAGAGAAAATCGGCCAGTTTTCTCTGCCTGCAGTCCGCATGCCGTGGGACCCCTTGGGTTCTAACCTGTTGCCTAGATTTATGCAGCGGACTGCCTTTCTCCCAAAGTGATAAACCGG…AGGTTGGTTTCACT; site = the 11-nt donor
Method in brief: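 For the IS621 bridge recombinase, a pooled Escherichia coli screen tested donor and donor-binding-loop pairs. Cells received the pair library together with a target plasmid encoding a fixed target and T7-inducible recombinase, then went onto IPTG (0.07 mM) plus kanamycin or unselected plates in duplicate. After PCR across the donor–target junction and sequencing, recombinant UMI counts were normalized to CPM, averaged, and scaled by control-derived factors. Each value is given as log10(CPM+1).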
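Further: IS621 bridge recombinase in Escherichia coli cells against a fixed T5 target plasmid.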

| Sequence | recombinant UMI read abundance (log10) |
| --- | --- |
| TACATCTCATGGACCGGTTTTCCCGGTAATCCGTATTTGTG (site TACATCTCTCA) | 0.976 |
| CGGGAGTCATGGACCGGTTTTCCCGGTAATCCGTATTTGCC (site CGGGAATCTGG) | 2.83 |
| TAATTGGCATGGACCGGTTTTCCCGGTAATCCGTATTTGTG (site TACTTGGCTCA) | 0.0115 |
| TGTACGTCATGGACCGGTTTTCCCGGTAATCCGTATTTGTT (site AGTACGTCTAA) | 0.00241 |
| CACTCCTCATGGACCGGTTTTCCCGGTAATCCGTATTTGCC (site CACTCTTCTGG) | 0 |
| AGACTTTCATGGACCGGTTTTCCCGGTAATCCGTATTTGAC (site AGACTTTCTGT) | 0 |
| ACCCAGACATGGACCGGTTTTCCCGGTAATCCGTATTTGGG (site ACCAAGACTCC) | 0.0107 |
| CAAGTGCCATGGACCGGTTTTCCCGGTAATCCGTATTTGTG (site CAAGTGCCTCA) | 0.662 |
| CGTTAGACATGGACCGGTTTTCCCGGTAATCCGTATTTGAC (site CGTTAGACTCT) | 0.0193 |
| CTATATACATGGACCGGTTTTCCCGGTAATCCGTATTTGAC (site CTATATACTGT) | 3.02 |
| GACCTCACATGGACCGGTTTTCCCGGTAATCCGTATTTGAT (site GATCTCACTAT) | 0.00913 |
| GTTCGAGCATGGACCGGTTTTCCCGGTAATCCGTATTTGCT (site GTTCGAGCTAG) | 1.9 |
| CCGGTAGCATGGACCGGTTTTCCCGGTAATCCGTATTTGTG (site CCGGTAGCTCA) | 0.303 |
| GTCACGACATGGACCGGTTTTCCCGGTAATCCGTATTTGAT (site GTCACGACTAT) | 1.77 |
| CTAAATGCATGGACCGGTTTTCCCGGTAATCCGTATTTGAG (site CTAAATGCTCT) | 2.87 |
| GGTTACCCATGGACCGGTTTTCCCGGTAATCCGTATTTGTC (site GGTTACCCTGA) | 0.664 |
| ACCTAAACATGGACCGGTTTTCCCGGTAATCCGTATTTGGG (site ACCTACACTCC) | 0.0196 |
| CGGGCATCATGGACCGGTTTTCCCGGTAATCCGTATTTGCT (site CGGCCATCTAG) | 0 |
| TTGCGGGCATGGACCGGTTTTCCCGGTAATCCGTATTTGTC (site TTGCGGGCTGA) | 2.15 |

| Sequence | recombinant UMI read abundance (log10) |
| --- | --- |
| ACCACCGCATGGACCGGTTTTCCCGGTAATCCGTATTTGCG (site GCCACCGCTCG) | 0 |
| CATTGAACATGGACCGGTTTTCCCGGTAATCCGTATTTGCC (site CATTGAACTGG) | 0 |
| AAGCATGCATGGACCGGTTTTCCCGGTAATCCGTATTTGGG (site AAGCAGGCTCC) | 0.0127 |
| AACCGTCCATGGACCGGTTTTCCCGGTAATCCGTATTTGAT (site AACCTTCCTAT) | 0.0119 |
| CCGCACACATGGACCGGTTTTCCCGGTAATCCGTATTTGTA (site CCGCACACTTA) | 0.895 |
| AGGTTCTCATGGACCGGTTTTCCCGGTAATCCGTATTTGTG (site AGGTTCCCTCA) | 0.22 |
| CCTAATGCATGGACCGGTTTTCCCGGTAATCCGTATTTGGC (site CCTAATCCTGC) | 0 |
| CTTCTCTCATGGACCGGTTTTCCCGGTAATCCGTATTTGTG (site CTTCTCTCTAA) | 0.0117 |
| GATTATCCATGGACCGGTTTTCCCGGTAATCCGTATTTGGT (site GATTATCCTAA) | 0.017 |
| TTCTTGACATGGACCGGTTTTCCCGGTAATCCGTATTTGCT (site TCCTTGACTAG) | 0.513 |
| GTGACGCCATGGACCGGTTTTCCCGGTAATCCGTATTTGTG (site GTGACGCCTCA) | 0 |
| CGCTAGACATGGACCGGTTTTCCCGGTAATCCGTATTTGAG (site CGCTAGACTCT) | 1.64 |
| CGCCGGACATGGACCGGTTTTCCCGGTAATCCGTATTTGCT (site CGCCGGACTAG) | 1.82 |
| GAGCCCACATGGACCGGTTTTCCCGGTAATCCGTATTTGAT (site GAGCCCACTAT) | 1.66 |
| GTAGCTACATGGACCGGTTTTCCCGGTAATCCGTATTTGAC (site GTAGATACTGT) | 1.02 |
| TCCACCGCATGGACCGGTTTTCCCGGTAATCCGTATTTGCG (site TCCACCGCTCG) | 0.0267 |
| GAATGGCCATGGACCGGTTTTCCCGGTAATCCGTATTTGCA (site GAATTGCCTTG) | 0 |
| TAAAGTCCATGGACCGGTTTTCCCGGTAATCCGTATTTGTA (site TAAAGTCCTCA) | 0.00255 |
| GTATGCTCATGGACCGGTTTTCCCGGTAATCCGTATTTGTA (site GTATGCCCTTA) | 1.2 |
